Results taken from ChEMBL document CHEMBL4387733, “Design, synthesis and biological evaluation of indane derived GPR40 agoPAMs” (Bioorg Med Chem Lett, 2019).
≈ marks a conversion by molar mass, not a printed value. Calls of active or inactive are those of the source. The calls are words filed in the database; no cut-off is given here.

Experiments:
[1] = target: Beta-3 adrenergic receptor (Homo sapiens) (UniProt P13945); experiment: Inhibition of human beta3 adrenergic receptor at 10 uM relative to control
[2] = target: T1, Free fatty acid receptor 1 (Homo sapiens, UniProt O14842); experiment: Positive allosteric modulation of recombinant human GPR40 expressed in HEK293 cells assessed as increase in [3H]-myo-inositol phosphate accumulation measured after 60 mins in presence of 100% human serum by microbeta counting method relative to control; format: functional, cell-based
[3] = target: T1, Free fatty acid receptor 1; experiment: Positive allosteric modulation of recombinant human GPR40 expressed in HEK293 cells assessed as increase in [3H]-myo-inositol phosphate accumulation measured after 60 mins in absence of human serum by microbeta counting method relative to control; format: functional, cell-based; set-up: concentration or dose not given beside the values
[4] = target: T1, Free fatty acid receptor 1; experiment: Positive allosteric modulation of recombinant human GPR40 expressed in HEK293 cells assessed as increase in [3H]-myo-inositol phosphate accumulation measured after 60 mins in presence of 100% human serum by microbeta counting method; format: functional, cell-based
[5] = Protein binding in human plasma assessed as unbound fraction level; format: ADME, cell-free
[6] = target: Acetylcholinesterase (Homo sapiens) (UniProt P22303); experiment: Inhibition of human recombinant full length acetylcholine esterase expressed in HEK293 cells at 10 uM using acetylcholine as substrate preincubated for 15 mins followed by substrate addition measured after 20 mins by spectrophotometric analysis
[7] = target: Cysteinyl leukotriene receptor 2 (Homo sapiens) (UniProt Q9NS75); experiment: Displacement of [3H]LTD4 from human full-length recombinant cysteinyl leukotriene type-2 receptor expressed in HEK293 cells at 10 uM measured after 60 mins by scintillation counting method relative to control; format: cell-based
[8] = target: Peroxisome proliferator-activated receptor gamma (Homo sapiens) (UniProt P37231); experiment: Inhibition of human PPARG at 10 uM relative to control
[9] = target: Prostacyclin receptor (Homo sapiens) (UniProt P43119); experiment: Inhibition of human prostanoid IP receptor at 10 uM relative to control
[10] = target: Sodium-dependent dopamine transporter (Homo sapiens) (UniProt Q01959); experiment: Inhibition of human sodium dependent dopamine transporter at 10 uM relative to control
[11] = target: Sodium-dependent noradrenaline transporter (Homo sapiens) (UniProt P23975); experiment: Inhibition of human sodium dependent noradrenaline transporter at 10 uM relative to control
[12] = target: Histamine H1 receptor (Homo sapiens) (UniProt P35367); experiment: Inhibition of human histamine H1 receptor at 10 uM relative to control
[13] = target: Prostaglandin E2 receptor EP1 subtype (Homo sapiens) (UniProt P34995); experiment: Inhibition of human prostanoid EP1 receptor at 10 uM relative to control
[14] = target: Prostaglandin E2 receptor EP3 subtype (Homo sapiens) (UniProt P43115); experiment: Inhibition of human prostanoid EP3 receptor at 10 uM relative to control
[15] = Unbound drug level in Wistar Han rat plasma at 1 mg/kg, iv or 2 mg/kg, po measured at 3 hrs; format: ADME, organism-based; conditions: in vivo
[16] = Total drug level in Wistar Han rat plasma at 1 mg/kg, iv or 2 mg/kg, po measured at 3 hrs; format: ADME, organism-based
[17] = Cmax in Wistar Han rat at 1 mg/kg, iv or 2 mg/kg, po; format: ADME, organism-based; conditions: in vivo
[18] = Oral bioavailability in Wistar Han rat at 2 mg/kg; format: ADME, organism-based; conditions: in vivo
[19] = Half-life in Wistar Han rat at 1 mg/kg, iv or 2 mg/kg, po; format: ADME, organism-based; conditions: in vivo
[20] = Volume of distribution in Wistar Han rat at 1 mg/kg, iv or 2 mg/kg, po; format: ADME, organism-based; conditions: in vivo
[21] = Dose normalized AUC in Wistar Han rat at 2 mg/kg, po; format: ADME, organism-based; conditions: in vivo
[22] = Clearance in Wistar Han rat at 1 mg/kg, iv or 2 mg/kg, po; format: ADME, organism-based; conditions: in vivo
[23] = Total drug level in rat plasma at 10 mg/kg, po; format: ADME, organism-based; conditions: in vivo
[24] = Total drug level in rat plasma at 30 mg/kg, po; format: ADME, organism-based; conditions: in vivo
[25] = Total drug level in rat plasma at 3 mg/kg, po; format: ADME, organism-based; conditions: in vivo
[26] = Total drug level in rat plasma at 1 mg/kg, po; format: ADME, organism-based; conditions: in vivo
[27] = Total drug level in rat plasma at 0.3 mg/kg, po; format: ADME, organism-based; conditions: in vivo
[28] = Protein binding in rat plasma assessed as unbound fraction at 30 mg/kg, po; format: ADME, organism-based; conditions: in vivo
[29] = Protein binding in rat plasma assessed as unbound fraction at 10 mg/kg, po; format: ADME, organism-based; conditions: in vivo
[30] = Protein binding in rat plasma assessed as unbound fraction at 3 mg/kg, po; format: ADME, organism-based; conditions: in vivo
[31] = Protein binding in rat plasma assessed as unbound fraction at 1 mg/kg, po; format: ADME, organism-based; conditions: in vivo
[32] = species: Mus musculus; experiment: Glucose lowering effect in mouse assessed as increase in GLP-1 level; format: functional, organism-based
[33] = Protein binding in rat plasma assessed as unbound fraction at 0.3 mg/kg, po; format: ADME, organism-based; conditions: in vivo
[34] = system: Rattus norvegicus; experiment: Hypoglycemic activity in Sprague-Dawley rat assessed as reduction in blood glucose AUC at 3 mg/kg, ip measured after 3 hrs by IPGTT relative to control; format: functional
[35] = Drug level in rat plasma at 100 mg/kg; format: ADME, organism-based; conditions: in vivo
[36] = Drug level in rat plasma at 650 mg/kg; format: ADME, organism-based; conditions: in vivo
[37] = Toxicity in rat at 100 mg/kg administered for 4 days; format: organism-based; conditions: in vivo, 96 h
[38] = Toxicity in rat assessed as change in clinical pathology at 600 mg/kg administered for 4 days; format: organism-based; conditions: in vivo, 96 h
[39] = Drug metabolism in human hepatocytes assessed as (2S,3S,4S,5R)-6-((2S,3R)-3-cyclopropyl-3-(3-((R)-5-(2-fluoro-5-methoxyphenyl)-2,3-dihydro-1H-inden-1-yloxy)phenyl)-2-methylpropanoyloxy)-3,4,5-trihydroxytetrahydro-2H-pyran-2-carboxylic acid formation at 5 uM measured after 2 hrs; format: ADME, cell-based, Hepatocyte
[40] = Drug metabolism in rat hepatocytes assessed as (2S,3R)-3-cyclopropyl-3-(3-((R)-5-(2-fluoro-5-(sulfooxy)phenyl)-2,3-dihydro-1H-inden-1-yloxy)phenyl)-2-methylpropanoic acid formation at 5 uM measured after 2 hrs; format: ADME, cell-based, Hepatocyte
[41] = Drug level in Wistar Han rat assessed as unbound fraction at 1 mg/kg, iv or 2 mg/kg, po; format: ADME, organism-based; conditions: in vivo
[42] = system: Rattus norvegicus; experiment: Hypoglycemic activity in Sprague-Dawley rat assessed as reduction in blood glucose AUC at 0.3 mg/kg, po pretreated for 1 hr followed by glucose challenge by OGTT relative to control; format: functional; set-up: scale not given: the % may be the effect or the level left
[43] = system: Rattus norvegicus; experiment: Hypoglycemic activity in Sprague-Dawley rat assessed as reduction in blood glucose AUC at 30 mg/kg, po pretreated for 1 hr followed by glucose challenge by OGTT relative to control; format: functional; set-up: scale not given: the % may be the effect or the level left
[44] = system: Rattus norvegicus; experiment: Hypoglycemic activity in Sprague-Dawley rat assessed as reduction in blood glucose AUC at 10 mg/kg, po pretreated for 1 hr followed by glucose challenge by OGTT relative to control; format: functional; set-up: scale not given: the % may be the effect or the level left
[45] = system: Rattus norvegicus; experiment: Hypoglycemic activity in Sprague-Dawley rat assessed as reduction in blood glucose AUC at 3 mg/kg, po pretreated for 1 hr followed by glucose challenge by OGTT relative to control; format: functional; set-up: scale not given: the % may be the effect or the level left
[46] = system: Rattus norvegicus; experiment: Hypoglycemic activity in Sprague-Dawley rat assessed as reduction in blood glucose AUC at 1 mg/kg, po pretreated for 1 hr followed by glucose challenge by OGTT relative to control; format: functional; set-up: scale not given: the % may be the effect or the level left
[47] = target: T1, Free fatty acid receptor 1; experiment: Positive allosteric modulation of recombinant human GPR40 expressed in HEK293 cells assessed as increase in [3H]-myo-inositol phosphate accumulation measured after 60 mins in absence of human serum by microbeta counting method; format: functional, cell-based
[48] = Ratio of compound effect for protein binding in rat plasma assessed as unbound fraction at 30 mg/kg, po to fEC50 for positive allosteric modulation of recombinant human GPR40 expressed in HEK293 cells in presence of 100% human serum
[49] = Ratio of compound effect for protein binding in rat plasma assessed as unbound fraction at 10 mg/kg, po to fEC50 for positive allosteric modulation of recombinant human GPR40 expressed in HEK293 cells in presence of 100% human serum
[50] = Toxicity in rat assessed as change in body weight at 600 mg/kg administered for 4 days; format: organism-based; conditions: in vivo, 96 h
[51] = Solubility of the compound in FASSIF; format: physicochemical
[52] = Drug level in human hepatocytes treated with (2S,3R)-3-cyclopropyl-3-(3-((R)-5-(2-fluoro-5-methoxyphenyl)-2,3-dihydro-1H-inden-1-yloxy)phenyl)-2-methylpropanoic acid at 5 uM measured after 2 hrs; format: ADME, cell-based, Hepatocyte
[53] = Stability of the compound in pH 7.4 potassium phosphate buffer at 10 uM measured after 5 hrs; format: physicochemical; conditions: pH 7.4, 5 h
[54] = Drug level in rat hepatocytes treated with (2S,3R)-3-cyclopropyl-3-(3-((R)-5-(2-fluoro-5-methoxyphenyl)-2,3-dihydro-1H-inden-1-yloxy)phenyl)-2-methylpropanoic acid at 5 uM measured after 2 hrs; format: ADME, cell-based, Hepatocyte

T1 sequence (O14842 whole entry): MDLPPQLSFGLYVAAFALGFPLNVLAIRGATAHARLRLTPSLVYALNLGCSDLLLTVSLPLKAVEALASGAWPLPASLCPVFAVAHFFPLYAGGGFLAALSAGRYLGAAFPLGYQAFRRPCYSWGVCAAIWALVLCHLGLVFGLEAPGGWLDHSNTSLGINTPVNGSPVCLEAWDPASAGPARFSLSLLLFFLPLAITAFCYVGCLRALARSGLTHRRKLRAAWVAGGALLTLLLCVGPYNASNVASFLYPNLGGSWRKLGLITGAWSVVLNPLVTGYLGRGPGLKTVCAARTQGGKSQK
Cysteinyl leukotriene receptor 2 (Homo sapiens), sequence (Q9NS75 whole entry): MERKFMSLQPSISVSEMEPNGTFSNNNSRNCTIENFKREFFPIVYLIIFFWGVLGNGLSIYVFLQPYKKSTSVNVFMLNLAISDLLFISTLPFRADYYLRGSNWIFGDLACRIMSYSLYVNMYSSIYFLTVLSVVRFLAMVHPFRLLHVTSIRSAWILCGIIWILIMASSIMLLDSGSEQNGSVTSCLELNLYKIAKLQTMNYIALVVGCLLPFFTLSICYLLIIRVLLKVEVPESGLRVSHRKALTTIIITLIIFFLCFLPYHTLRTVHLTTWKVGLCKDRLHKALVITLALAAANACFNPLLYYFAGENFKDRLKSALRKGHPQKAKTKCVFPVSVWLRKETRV
Beta-3 adrenergic receptor (Homo sapiens), sequence (P13945 whole entry, looked up): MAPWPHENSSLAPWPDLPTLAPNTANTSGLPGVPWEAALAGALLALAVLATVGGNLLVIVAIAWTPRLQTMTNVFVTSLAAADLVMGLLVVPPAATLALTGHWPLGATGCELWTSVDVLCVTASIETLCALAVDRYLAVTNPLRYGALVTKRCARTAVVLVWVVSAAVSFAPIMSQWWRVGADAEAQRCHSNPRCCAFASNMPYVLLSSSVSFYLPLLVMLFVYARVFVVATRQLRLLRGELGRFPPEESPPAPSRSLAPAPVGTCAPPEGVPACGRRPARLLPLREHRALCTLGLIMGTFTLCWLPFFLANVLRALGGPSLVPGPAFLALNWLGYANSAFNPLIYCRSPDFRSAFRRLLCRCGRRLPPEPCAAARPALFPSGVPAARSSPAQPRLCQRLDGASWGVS
Acetylcholinesterase (Homo sapiens), sequence (P22303 whole entry): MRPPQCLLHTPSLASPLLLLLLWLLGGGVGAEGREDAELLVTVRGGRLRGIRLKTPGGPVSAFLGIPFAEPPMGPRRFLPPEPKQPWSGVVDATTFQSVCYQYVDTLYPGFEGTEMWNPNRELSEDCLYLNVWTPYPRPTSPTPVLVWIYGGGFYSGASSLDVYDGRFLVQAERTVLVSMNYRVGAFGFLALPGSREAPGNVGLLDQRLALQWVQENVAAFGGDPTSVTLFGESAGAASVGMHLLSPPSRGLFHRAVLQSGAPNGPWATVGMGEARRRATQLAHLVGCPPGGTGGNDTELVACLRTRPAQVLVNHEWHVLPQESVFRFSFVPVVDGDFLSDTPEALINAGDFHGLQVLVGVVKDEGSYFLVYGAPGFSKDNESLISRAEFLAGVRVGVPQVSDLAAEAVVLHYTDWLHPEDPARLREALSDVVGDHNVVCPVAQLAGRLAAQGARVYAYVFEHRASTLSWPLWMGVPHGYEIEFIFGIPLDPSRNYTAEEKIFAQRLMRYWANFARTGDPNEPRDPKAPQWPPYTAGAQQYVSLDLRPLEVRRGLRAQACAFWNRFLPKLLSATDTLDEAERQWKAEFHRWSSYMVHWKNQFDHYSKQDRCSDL
Sodium-dependent noradrenaline transporter (Homo sapiens), sequence (P23975 whole entry): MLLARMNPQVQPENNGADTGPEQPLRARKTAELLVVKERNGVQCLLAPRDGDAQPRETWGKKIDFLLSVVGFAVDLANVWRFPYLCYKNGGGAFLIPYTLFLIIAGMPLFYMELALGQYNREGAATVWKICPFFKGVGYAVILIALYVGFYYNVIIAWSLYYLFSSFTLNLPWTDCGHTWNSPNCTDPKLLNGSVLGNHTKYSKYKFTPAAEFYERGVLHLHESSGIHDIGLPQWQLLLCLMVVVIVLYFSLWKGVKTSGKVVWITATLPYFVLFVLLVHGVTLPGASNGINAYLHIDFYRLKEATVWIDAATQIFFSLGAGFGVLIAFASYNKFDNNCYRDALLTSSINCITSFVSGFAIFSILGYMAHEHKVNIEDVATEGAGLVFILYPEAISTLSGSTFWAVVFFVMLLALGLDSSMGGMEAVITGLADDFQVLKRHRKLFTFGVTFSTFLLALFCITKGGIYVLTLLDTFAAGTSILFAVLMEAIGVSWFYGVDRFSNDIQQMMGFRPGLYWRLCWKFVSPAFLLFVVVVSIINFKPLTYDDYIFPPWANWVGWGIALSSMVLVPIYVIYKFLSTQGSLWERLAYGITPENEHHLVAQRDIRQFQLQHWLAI
Prostaglandin E2 receptor EP3 subtype (Homo sapiens), sequence (P43115 whole entry): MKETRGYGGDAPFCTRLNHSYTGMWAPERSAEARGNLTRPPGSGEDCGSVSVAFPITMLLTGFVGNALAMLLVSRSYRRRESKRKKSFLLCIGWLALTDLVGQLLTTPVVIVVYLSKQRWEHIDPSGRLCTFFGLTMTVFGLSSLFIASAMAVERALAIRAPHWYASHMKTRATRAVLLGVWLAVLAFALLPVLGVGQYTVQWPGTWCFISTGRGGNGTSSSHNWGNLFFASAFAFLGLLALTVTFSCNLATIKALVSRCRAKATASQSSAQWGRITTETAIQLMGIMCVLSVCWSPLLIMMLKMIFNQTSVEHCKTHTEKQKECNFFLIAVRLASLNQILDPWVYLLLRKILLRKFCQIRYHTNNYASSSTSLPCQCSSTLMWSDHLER
Prostaglandin E2 receptor EP1 subtype (Homo sapiens), sequence (P34995 whole entry): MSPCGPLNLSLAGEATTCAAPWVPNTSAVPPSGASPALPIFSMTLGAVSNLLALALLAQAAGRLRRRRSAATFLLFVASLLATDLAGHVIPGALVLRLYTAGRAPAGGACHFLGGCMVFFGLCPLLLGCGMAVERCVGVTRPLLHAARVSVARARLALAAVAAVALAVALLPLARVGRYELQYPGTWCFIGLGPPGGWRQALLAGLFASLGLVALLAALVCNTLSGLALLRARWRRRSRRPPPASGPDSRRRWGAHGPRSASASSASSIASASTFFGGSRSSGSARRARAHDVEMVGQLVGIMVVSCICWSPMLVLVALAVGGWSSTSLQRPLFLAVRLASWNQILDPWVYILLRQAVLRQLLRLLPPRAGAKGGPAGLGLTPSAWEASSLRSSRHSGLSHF
Prostacyclin receptor (Homo sapiens), sequence (P43119 whole entry): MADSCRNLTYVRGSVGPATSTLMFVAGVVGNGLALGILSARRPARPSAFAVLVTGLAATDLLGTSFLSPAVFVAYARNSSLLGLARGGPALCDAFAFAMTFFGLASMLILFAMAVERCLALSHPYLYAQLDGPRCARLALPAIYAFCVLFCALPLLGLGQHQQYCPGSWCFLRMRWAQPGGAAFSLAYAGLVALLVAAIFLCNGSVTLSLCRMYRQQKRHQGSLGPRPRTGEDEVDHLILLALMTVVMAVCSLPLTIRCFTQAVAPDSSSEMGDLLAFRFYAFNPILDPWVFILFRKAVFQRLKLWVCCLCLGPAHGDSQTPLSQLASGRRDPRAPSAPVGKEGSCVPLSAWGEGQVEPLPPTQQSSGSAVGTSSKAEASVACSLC
Histamine H1 receptor (Homo sapiens), sequence (P35367 whole entry): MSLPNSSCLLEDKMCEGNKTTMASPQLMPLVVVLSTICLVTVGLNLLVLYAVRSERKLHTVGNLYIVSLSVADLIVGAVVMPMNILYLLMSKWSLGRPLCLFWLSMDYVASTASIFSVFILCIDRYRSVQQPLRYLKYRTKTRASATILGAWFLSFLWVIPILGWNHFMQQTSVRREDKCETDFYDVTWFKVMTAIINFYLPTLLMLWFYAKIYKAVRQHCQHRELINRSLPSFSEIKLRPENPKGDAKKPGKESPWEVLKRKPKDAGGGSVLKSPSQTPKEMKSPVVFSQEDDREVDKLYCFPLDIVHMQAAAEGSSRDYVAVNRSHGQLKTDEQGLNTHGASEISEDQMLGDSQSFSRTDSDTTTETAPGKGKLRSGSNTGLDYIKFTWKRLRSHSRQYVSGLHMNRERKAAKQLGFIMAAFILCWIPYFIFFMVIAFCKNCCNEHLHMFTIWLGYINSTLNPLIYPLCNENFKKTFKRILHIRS
Peroxisome proliferator-activated receptor gamma (Homo sapiens), sequence (P37231 whole entry): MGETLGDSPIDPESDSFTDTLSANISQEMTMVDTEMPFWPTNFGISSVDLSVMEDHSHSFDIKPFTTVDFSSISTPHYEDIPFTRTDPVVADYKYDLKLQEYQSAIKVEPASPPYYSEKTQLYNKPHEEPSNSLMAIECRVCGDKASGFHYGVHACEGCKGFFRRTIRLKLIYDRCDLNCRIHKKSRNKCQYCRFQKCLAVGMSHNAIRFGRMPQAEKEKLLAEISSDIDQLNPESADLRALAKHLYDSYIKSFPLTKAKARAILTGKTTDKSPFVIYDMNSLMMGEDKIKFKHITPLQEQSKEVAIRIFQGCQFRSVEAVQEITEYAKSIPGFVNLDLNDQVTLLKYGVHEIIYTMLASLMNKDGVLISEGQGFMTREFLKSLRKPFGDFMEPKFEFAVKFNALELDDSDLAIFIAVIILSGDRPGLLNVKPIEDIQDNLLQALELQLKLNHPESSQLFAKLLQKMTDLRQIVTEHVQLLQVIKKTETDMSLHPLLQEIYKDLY

COc1ccc(F)c(-c2ccc3c(c2)CC[C@H]3Oc2cccc([C@H](C3CC3)[C@H](C)C(=O)O)c2)c1
inhibition [1]: 55% | Activity [2]: 205% | Activity [3]: 323% | EC50 [4]: 388 nM | fEC50 [4]: 0.04 nM | Fu [5]: 0.01% | inhibition [6]: 52% | inhibition [7]: 71% | inhibition [8]: 87% | inhibition [9]: 68% | inhibition [10]: 89% | inhibition [11]: 69% | inhibition [12]: 70% | inhibition [13]: 81% | inhibition [14]: 80% | Cp(f) [15]: 0.16 nM | concentration at 3 h [16]: 1600 nM | Cmax [17]: 2900 nM | bioavailability [18]: 81% | half-life [19]: 1.8 h | Vd [20]: 0.33 L/kg | AUC/dose [21]: 21.5 µM·h | clearance [22]: 2.8 mL/min/kg | concentration [23]: 7610 nM | concentration [24]: 17300 nM | concentration [25]: 4470 nM | concentration [26]: 689 nM | concentration [27]: 207 nM | Cp(f) [28]: 1.73 nM | Cp(f) [29]: 0.76 nM | Cp(f) [30]: 0.45 nM | Cp(f) [31]: 0.069 nM | Activity [32]: Active | Cp(f) [33]: 0.02 nM | inhibition in vivo at 3 mg/kg [34]: 71% | concentration [35]: 1240 nM | concentration [36]: 1900 nM | Activity [37]: Non-Toxic | Activity [38]: Toxic | Drug metabolism [39]: Metabolite_Detected | Drug metabolism [40]: Metabolite_Detected | Fu [41]: 0.01% | Activity [42]: 19% | Activity [43]: 114% | Activity [44]: 105% | Activity [45]: 82% | Activity [46]: 40% | EC50 [47]: 4.5 nM | Ratio [48]: 42 | Ratio [49]: 19 | Activity [50]: Toxic | solubility [51]: 153 µM (≈ 70.5 µg/mL)

C[C@H](C(=O)OC1O[C@H](C(=O)O)[C@@H](O)[C@H](O)[C@H]1O)[C@H](c1cccc(O[C@@H]2CCc3cc(-c4cc(O)ccc4F)ccc32)c1)C1CC1 (stereo not given in full)
Drug metabolism [52]: Metabolite_Detected | Stability [53]: Stable

C[C@H](C(=O)O)[C@H](c1cccc(O[C@@H]2CCc3cc(-c4cc(OS(=O)(=O)O)ccc4F)ccc32)c1)C1CC1
Drug metabolism [54]: Metabolite_Detected
